What was measured:
Type in all cases: cell-based
[1] = test system: Staph. aureus; assay: Inhibition test (microdilution assay), inhibition of bacterial growth; conditions: Staphylococcus aureus; for inhibition at 100 µM: c = 100 μM
Method: (§1) Inhibition Test Culture media used: Müller-Hinton broth Caso agar plates Test method: Microdilution assay The test organisms are cultured overnight in […]-Honton broth at 35° C. +/-2° C. The suspension of organisms is centrifuged (5000 rev./min, 4° C.); the pellet is resuspended in fresh medium and incubated for a further 2 h. The pellet is then resuspended in 0.9% NaCl solution and the number of cells is adjusted to about 10^8 CFU/ml using standard curves. The resulting suspension is then diluted with Müller-Hinton broth to about 10^4 CFU/ml(=inoculum). Starting from the inoculum, a determination of the number of organisms is carried out by spiralling out (2×0.1 ml) a suitable dilution stage onto CASO agar plates. Test procedure: Specific concentrations of the potential inhibitors are dispensed into a 96-well microtitre assay plate, wells A1-H1remaining empty. The wells of the microtitre assay plates are inoculated with the adjusted suspension of organisms. Wells A1-H1serve as growth controls. Immediately after inoculation and after incubation of the plates for 24 h and 48 h, they are measured in a plate reader (Biotek EL 311) at 550 nm. From the crude data, the inhibition of bacterial and fungal growth is calculated in percent.

[2] = test system: Bac. subtilis; assay: as above; conditions: Bacillus subtilis; for inhibition at 100 µM: c = 100 μM
Method: as §1

[3] = test system: Candida albicans; assay: Inhibition test (microdilution assay), inhibition of fungal growth; conditions: read-out: Inhibition of bacterial growth: Candida albicans; for inhibition at 100 µM: c = 100 μM
Method: as §1

[4] = test system: Strept. pneumoniae; assay: Inhibition test (microdilution assay), inhibition of bacterial growth; conditions: Streptococcus pneumoniae; c = 100 μM
Method: as §1

[5] = test system: A549; assay: Assay 1: cell growth by acid phosphatase activity; conditions: Homo sapiens; for GI50: A549, acid phosphatase, substance 0.1-100 μM, 48 h and 96 h, read-out: Cell proliferation GI50: A549; for inhibition at up to 100 µM: A549, printed beside GI50 >100 μM, concentration not given, read-out: Cell proliferation: A549, % inhibition
Method: (§2) Assay 1 Measurement of cell growth by determination of the activity of the intracellular enzyme acid phosphatase. The added substrate p-nitrophenyl phosphate is converted by acid phosphatase into p-nitrophenol, which absorbs light at 405 nm, the intensity of the yellow coloration being proportional to the number of cells. Incubation of the cell lines HEPG-2 and A549 together with the substance (0.1-100 μM) was carried out for 48 h and 96 h at 37° C. and 5% CO2.

[6] = test system: HepG2; assay: Assay 1: cell growth by acid phosphatase activity; conditions: Homo sapiens; for GI50: HepG2, acid phosphatase, substance 0.1-100 μM, 48 h and 96 h, read-out: Cell proliferation GI50: HepG2; for inhibition at up to 100 µM: HepG2, printed beside GI50 >100 μM, concentration not given, read-out: Cell proliferation: HepG2, % inhibition
Method: as §2

| Compound | inhibition at 12.5 µM ([1]; c = 12.5 μM) [%] | inhibition at 25 µM ([2]; c = 25 μM) [%] | inhibition at 100 µM [3] [%] | inhibition at 100 µM [4] [%] | inhibition at 100 µM [1] [%] | inhibition at 100 µM [2] [%] | GI50 [5] [µM] | inhibition at up to 100 µM [5] [%] | GI50 [6] [µM] | inhibition at up to 100 µM [6] [%] | inhibition at 200 µM ([3]; c = 200 μM) [%] | inhibition at 50 µM ([1]; c = 50 μM) [%] | inhibition at 50 µM ([2]; c = 50 μM) [%] | inhibition at 50 µM ([3]; c = 50 μM) [%] |
| --- | --- | --- | --- | --- | --- | --- | --- | --- | --- | --- | --- | --- | --- | --- |
| c1ccc(COc2cc3c(-c4cncn4C4CCc5ccccc54)c[nH]c3cn2)cc1 (stereo not shown) [Example 12] | 80 | 100 | 60 | – | – | – | – | – | – | – | – | – | – | – |
| c1ccc(COc2cc3c(-c4cncn4C4CCN(Cc5ccccc5)CC4)c[nH]c3cn2)cc1 [Example 4] | – | – | 70 | 90 | 100 | 100 | > 100 | 41 | > 100 | 65 | – | – | – | – |
| c1ccc(COc2cc3c(-c4cncn4C4CCCc5ccccc54)c[nH]c3cn2)cc1 (stereo not shown) [Example 1] | – | – | 0 | 100 | 100 | 100 | > 100 | 22 | – | – | – | – | – | – |
| c1ccc(COc2cc3c(-c4cncn4CCc4c[nH]c5ccccc45)c[nH]c3cn2)cc1 [Example 6] | – | – | 0 | 10 | 85 | 10 | > 100 | 19 | > 100 | 17 | – | – | – | – |
| Cc1[nH]c2ccccc2c1-c1cncn1CCNC(C)C [Example 8] | – | – | 0 | 0 | 82 | 39 | > 100 | 10 | > 100 | 0 | – | – | – | – |
| CC(C)CCn1cncc1-c1c[nH]c2cnc(OCc3ccccc3)cc12 [Example 5] | – | – | 0 | 90 | 100 | 100 | > 100 | 33 | > 100 | 38 | – | – | – | – |
| O[C@@H]1Cc2ccccc2C1n1cncc1-c1c[nH]c2cnc(OCc3ccccc3)cc12 (stereo partly shown) [Example 13] | – | – | – | – | 90 | 90 | – | – | – | – | 90 | – | – | – |
| c1ccc(CN2CCC(n3cncc3-c3c[nH]c4ccccc34)CC2)cc1 [Example 3] | – | – | 60 | 80 | 100 | 100 | > 100 | 26 | > 100 | 48 | – | – | – | – |
| Fc1ccc(-c2ncn(C3CCCc4ccccc43)c2-c2c[nH]c3cnc(OCc4ccccc4)cc23)cc1 (stereo not shown) [Example 11] | – | – | – | – | – | – | – | – | – | – | – | 60 | 80 | 100 |
| COc1ccc2[nH]cc(-c3cncn3CCc3ccc(O)cc3)c2c1 [Example 9] | – | – | 0 | 85 | 25 | 38 | > 100 | 31 | > 100 | 14 | – | – | – | – |
| Cc1[nH]c2ccccc2c1-c1cncn1C1CCCc2ccccc21 (stereo not shown) [Example 7] | – | – | 0 | 0 | 40 | 76 | > 100 | 0 | > 100 | 0 | – | – | – | – |
| Cc1[nH]c2ccccc2c1-c1cncn1C1CCN(Cc2ccccc2)CC1 [Example 2] | – | – | 60 | 90 | 100 | 100 | > 100 | 12 | > 100 | 1 | – | – | – | – |

Source: patent publication US6699883B1, “Pyrroloimidazole derivatives and their use as medicaments” (Morphochem AG, priority 1999, dated 2004)
